Assay results: patent US10945951B2, “Apparatus for compound dispersion” (Biogen MA Inc., priority 2014, dated 2021)

What was measured:
[1] = PET imaging of distribution of lumbar intrathecally injected 64Cu-DOTA, bolus volume and respiratory vest force; format: in vivo, Cynomolgus monkeys; settings: lumbar intrathecal
Description: The ability of a time varying force applied to the torso of a patient and increased bolus volumes to enhance CNS exposure of intrathecally injected compounds was tested in cynomolgus monkeys. Specifically, live whole animal positron emission tomography (PET) imaging was used to monitor the distribution of intrathecally injected ^64Cu-DOTA given as a compound surrogate. This approach allowed the direct imaging of the impact of the convective force on compound spread in CSF and the exposure of the primate CNS to the compound. During the experiments, Cynomolgus monkeys were given a lumbar intrathecal injection of ^64Cu-DOTA in a volume of either 0.36 ml (about 3% of the total CSF volume) or 1.86 ml (about 15% of the total CSF volume), see FIG. 6. The 3% total CSF volume was chosen to mimic a typical lumbar intrathecal injection volume of about 5 ml that is used clinically. Following lumbar intrathecal injection, the animals were placed in a respiratory vest for 20 minutes. The vest was turned on for 20 minutes only for those animals in which the effect of the time varying force enhanced convection was tested. Animals wearing the vest without activating the time varying force feature served as controls. Animals were then imaged with PET scanning for a time window of 30-60 min post dosing.

[2] = 20 μl bolus, intrathecal
Description: The same amount of each probe was used in each injected bolus. However, the total bolus volumes for the separate injections were 20 μl and 30 μl followed by a 40 μl saline flush. The boluses were injected intrathecally into rodents and the concentration of the two probes was monitored at the lumbar, thoracic, and cervical regions.

[3] = SPECT imaging of two probes injected in a single bolus into lumbar cistern and cisterna magna; format: in vivo, rat; settings: single 20 ml bolus, lumbar cistern and cisterna magna injection
Description: Two different probes including different isotopes were injected via a single […] bolus into rodents and then imaged at different energies. […] FIG. 8B depicts a structure of the second mitochondria targeting probe ^99mTc-Sestamibi. The bolus was injected into the lumbar cistern and the cisterna magna to help distinguish uptake into interstitial spaces versus uptake into intracellular compartments, see FIG. 8C. […] Consequently, it is apparent that the cell affinity of a compound for the structures and tissue within the CNS should be considered when determining the optimal parameters, such as injection site, bolus volume, and the applied forces, needed to ensure a compound reaches a desired target site.

[4] = Live imaging of intrathecally injected Gd-DTPA in dog; format: in vivo
Description: For this experiment, an adult male two-year-old beagle was intrathecally injected at the L4-L5 space and live imaging was performed under anesthesia for five hours.
FIGS. 15C-15G show the signal counts corresponding to the presence of Gd-DTPA over the five hour monitoring period. The various monitored locations included the hippocampus, spinal column, substantia nigra, cortex, and striatum.

O=C([O-])CN1CCN(CC(=O)O)CCN(CC(=O)[O-])CCN(CC(=O)O)CC1.[64Cu+2] [^64Cu-DOTA]
CNS exposure / compound spread in CSF ([1]; 3% CSF volume (0.36 ml), respiratory vest turned on 20 minutes, PET 30-60 min post dosing): the entire spinal cord, and brainstem displayed exposure
CNS exposure / compound spread in CSF ([1]; 3% CSF volume (0.36 ml), vest not turned on, PET 30-60 min post dosing): only reached the lower thoracic spinal cord
CNS exposure / compound spread in CSF ([1]; 15% CSF volume (1.86 ml), combined with time varying forces of the vest): greatest rostral spread
CNS exposure / compound spread in CSF ([1]; 15% CSF volume (1.86 ml), vest not activated, PET 30-60 min post dosing): exposure over the entire spinal cord and portions of the brainstem

[C-]#[N+]CC(C)(C)OC.[C-]#[N+]CC(C)(C)OC.[C-]#[N+]CC(C)(C)OC.[C-]#[N+]CC(C)(C)OC.[C-]#[N+]CC(C)(C)OC.[C-]#[N+]CC(C)(C)OC.[Tc] [^99mTc-Sestamibi]
concentration in the lumbar region at injection [2]: initially high concentration
concentration over time in the thoracic and cervical regions [2]: did not increase
distribution along the CNS [3]: showed very little distribution along the CNS

O=C([O-])CN(CCN(CC(=O)[O-])CC(=O)O)CCN(CC(=O)[O-])CC(=O)O.[Gd+3] [Gd-DTPA]
signal intensity over time in hippocampus, spinal column, substantia nigra, cortex and striatum ([4]; intrathecal injection at L4-L5, five hour monitoring period): increase in the measured signal intensity over time
location in the brain (cellular uptake vs interstitial spaces) ([4]; intrathecal injection at L4-L5, live imaging five hours): not taken up into the cells but instead was located in the interstitial spaces of the brain

^111In-DTPA
distribution along the CNS [3]: showed distribution from the injection site towards the head of the rodent along the CNS
